Measurements reported in PubChem BioAssay (NCI).
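Dose response: 5 concentrations. Exposure: 48 h. Format: 96-well plates. Endpoint: linear interpolation; highest concentration if not reached. The concentration for 50% growth inhibition is given as GI50. TGI marks complete inhibition of growth.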

Experiments:
Test in all cases: growth of human tumour cells (NCI), 48 h
CCRF-CEM leukemia = system: CCRF-CEM leukemia
NCI-H522 lung = system: NCI-H522 lung
HS 578T breast = system: HS 578T breast
MOLT-4 leukemia = system: MOLT-4 leukemia
NCI-H460 lung = system: NCI-H460 lung
CAKI-1 renal = system: CAKI-1 renal
MALME-3M melanoma = system: MALME-3M melanoma
BT-549 breast = system: BT-549 breast
A498 renal = system: A498 renal
SN12C renal = system: SN12C renal
HOP-62 NSCLC = system: HOP-62 NSCLC
A549 NSCLC = system: A549 NSCLC
HCT-15 colon = system: HCT-15 colon
LOX IMVI melanoma = system: LOX IMVI melanoma
ACHN renal = system: ACHN renal
SF-539 CNS = system: SF-539 CNS
HL-60(TB) leukemia = system: HL-60(TB) leukemia
OVCAR-8 ovarian = system: OVCAR-8 ovarian
NCI/ADR-RES ovarian = system: NCI/ADR-RES ovarian
SK-MEL-2 melanoma = system: SK-MEL-2 melanoma
RPMI-8226 leukemia = system: RPMI-8226 leukemia
PC-3 prostate = system: PC-3 prostate
SK-MEL-28 melanoma = system: SK-MEL-28 melanoma
NCI-H23 lung = system: NCI-H23 lung
NCI-H226 lung = system: NCI-H226 lung
SNB-75 CNS = system: SNB-75 CNS
IGROV1 ovarian = system: IGROV1 ovarian
OVCAR-4 ovarian = system: OVCAR-4 ovarian
SF-268 CNS = system: SF-268 CNS
SK-OV-3 ovarian = system: SK-OV-3 ovarian
K-562 leukemia = system: K-562 leukemia
SF-295 CNS = system: SF-295 CNS
T-47D breast = system: T-47D breast
U251 CNS = system: U251 CNS
UACC-62 melanoma = system: UACC-62 melanoma
MDA-MB-435 = system: MDA-MB-435
OVCAR-5 ovarian = system: OVCAR-5 ovarian
HT29 colon = system: HT29 colon
UO-31 renal = system: UO-31 renal
MDA-MB-231 breast = system: MDA-MB-231 breast
SK-MEL-5 melanoma = system: SK-MEL-5 melanoma
HOP-92 NSCLC = system: HOP-92 NSCLC
COLO 205 colon = system: COLO 205 colon
RXF 393 renal = system: RXF 393 renal
DU-145 prostate = system: DU-145 prostate
UACC-257 melanoma = system: UACC-257 melanoma
TK-10 renal = system: TK-10 renal
HCC-2998 colon = system: HCC-2998 colon
SW-620 colon = system: SW-620 colon
M14 melanoma = system: M14 melanoma
SR leukemia = system: SR leukemia
MCF7 breast = system: MCF7 breast
EKVX NSCLC = system: EKVX NSCLC
KM12 colon = system: KM12 colon
MDA-MB-468 breast = system: MDA-MB-468 breast
786-0 renal = system: 786-0 renal
HCT-116 colon = system: HCT-116 colon
OVCAR-3 ovarian = system: OVCAR-3 ovarian
SNB-19 CNS = system: SNB-19 CNS

COc1ccc(NC(=O)CSc2nnc(-c3ccc(-c4nc5ccc(Cl)cc5[nH]4)cc3)o2)cc1
GI50 (CCRF-CEM leukemia): 6.86 µM | TGI (CCRF-CEM leukemia): > 100 µM | GI50 (NCI-H522 lung): 2110 nM | TGI (NCI-H522 lung): 8.03 µM | GI50 (HS 578T breast): 2280 nM | TGI (HS 578T breast): 7.23 µM | GI50 (MOLT-4 leukemia): 6.46 µM | TGI (MOLT-4 leukemia): > 100 µM | GI50 (NCI-H460 lung): 1350 nM | TGI (NCI-H460 lung): 4.16 µM | GI50 (CAKI-1 renal): 1540 nM | TGI (CAKI-1 renal): 3.38 µM | GI50 (MALME-3M melanoma): 1900 nM | TGI (MALME-3M melanoma): 5.63 µM | GI50 (BT-549 breast): 2750 nM | TGI (BT-549 breast): 6.12 µM | GI50 (A498 renal): 4.26 µM | TGI (A498 renal): 16 µM | GI50 (SN12C renal): 3.27 µM | TGI (SN12C renal): 16.3 µM | GI50 (HOP-62 NSCLC): 2520 nM | TGI (HOP-62 NSCLC): 5.37 µM | GI50 (A549 NSCLC): 2440 nM | TGI (A549 NSCLC): 10.7 µM | GI50 (HCT-15 colon): 7.77 µM | TGI (HCT-15 colon): 84.2 µM | GI50 (LOX IMVI melanoma): 2290 nM | TGI (LOX IMVI melanoma): 6.68 µM | GI50 (ACHN renal): 2690 nM | TGI (ACHN renal): 11.6 µM | GI50 (SF-539 CNS): 1900 nM | TGI (SF-539 CNS): 4.52 µM | GI50 (HL-60(TB) leukemia): > 100 µM | TGI (HL-60(TB) leukemia): > 100 µM | GI50 (OVCAR-8 ovarian): 3.58 µM | TGI (OVCAR-8 ovarian): 26 µM | GI50 (NCI/ADR-RES ovarian): 10.2 µM | TGI (NCI/ADR-RES ovarian): 42.9 µM | GI50 (SK-MEL-2 melanoma): 6.96 µM | TGI (SK-MEL-2 melanoma): 25.4 µM | GI50 (RPMI-8226 leukemia): 12 µM | TGI (RPMI-8226 leukemia): > 100 µM | GI50 (PC-3 prostate): 1610 nM | TGI (PC-3 prostate): 4.27 µM | GI50 (SK-MEL-28 melanoma): 1960 nM | TGI (SK-MEL-28 melanoma): 5.79 µM | GI50 (NCI-H23 lung): 2970 nM | TGI (NCI-H23 lung): 11.4 µM | GI50 (NCI-H226 lung): 1940 nM | TGI (NCI-H226 lung): 5.19 µM | GI50 (SNB-75 CNS): 1420 nM | TGI (SNB-75 CNS): 3.86 µM | GI50 (IGROV1 ovarian): 12.4 µM | TGI (IGROV1 ovarian): 25.3 µM | GI50 (OVCAR-4 ovarian): 3.02 µM | TGI (OVCAR-4 ovarian): 10 µM | GI50 (SF-268 CNS): 2220 nM | TGI (SF-268 CNS): 5.48 µM | GI50 (SK-OV-3 ovarian): 2870 nM | TGI (SK-OV-3 ovarian): 7.61 µM | GI50 (K-562 leukemia): 2740 nM | TGI (K-562 leukemia): > 100 µM | GI50 (SF-295 CNS): 1360 nM | TGI (SF-295 CNS): 4.05 µM | GI50 (T-47D breast): 14.2 µM | TGI (T-47D breast): 57.9 µM | GI50 (U251 CNS): 4.83 µM | TGI (U251 CNS): 16.5 µM | GI50 (UACC-62 melanoma): 3.81 µM | TGI (UACC-62 melanoma): 15.3 µM | GI50 (MDA-MB-435): 1870 nM | TGI (MDA-MB-435): 8.03 µM | GI50 (OVCAR-5 ovarian): 6.44 µM | TGI (OVCAR-5 ovarian): 22 µM | GI50 (HT29 colon): 4.9 µM | TGI (HT29 colon): 23.3 µM | GI50 (UO-31 renal): 10.9 µM | TGI (UO-31 renal): 23.1 µM | GI50 (MDA-MB-231 breast): 3.77 µM | TGI (MDA-MB-231 breast): 13.8 µM | GI50 (SK-MEL-5 melanoma): 3.02 µM | TGI (SK-MEL-5 melanoma): 11.8 µM | GI50 (HOP-92 NSCLC): 2620 nM | TGI (HOP-92 NSCLC): 10.6 µM | GI50 (COLO 205 colon): 19 µM | TGI (COLO 205 colon): 92.1 µM | GI50 (RXF 393 renal): 2300 nM | TGI (RXF 393 renal): 5.61 µM | GI50 (DU-145 prostate): 2290 nM | TGI (DU-145 prostate): 5.61 µM | GI50 (UACC-257 melanoma): 3.83 µM | TGI (UACC-257 melanoma): 23.6 µM | GI50 (TK-10 renal): 16.5 µM | TGI (TK-10 renal): 30.1 µM | GI50 (HCC-2998 colon): 43.5 µM | TGI (HCC-2998 colon): > 100 µM | GI50 (SW-620 colon): 4.54 µM | TGI (SW-620 colon): 20.6 µM | GI50 (M14 melanoma): 3.74 µM | TGI (M14 melanoma): 17.2 µM | GI50 (SR leukemia): 10.3 µM | TGI (SR leukemia): > 100 µM | GI50 (MCF7 breast): 4.39 µM | TGI (MCF7 breast): 74.2 µM | GI50 (EKVX NSCLC): 2670 nM | TGI (EKVX NSCLC): 13.3 µM | GI50 (KM12 colon): 5.16 µM | TGI (KM12 colon): 25.7 µM | GI50 (MDA-MB-468 breast): 15 µM | TGI (MDA-MB-468 breast): 38.4 µM | GI50 (786-0 renal): 1740 nM | TGI (786-0 renal): 3.56 µM | GI50 (HCT-116 colon): 3.91 µM | TGI (HCT-116 colon): 26.7 µM | GI50 (OVCAR-3 ovarian): 3.72 µM | TGI (OVCAR-3 ovarian): 14 µM | GI50 (SNB-19 CNS): 2540 nM | TGI (SNB-19 CNS): 7.59 µM
